Assay results published in patent US12545653B2, “Compound as PPAR agonist and application thereof” (USA Elixiria Biotech Inc., priority 2019, dated 2026).
pEC50: −log10 of the molar value.

Assays:
[1] = system: HEK 293T cells; assay: Inhibition of reactive oxygen species production (ROS-Glo H2O2 Assay); assay type: cell-based, human; details: 18 hours incubation; for pEC50: Homo sapiens, HEK-293T, 18 h; for inhibition of active oxygen production (up to), compared to the DMSO control: 0-30 micromole/L
Method: Mitochondrial reactive oxygen species-induced oxidative stress is the source of many diseases. This experiment is used to test whether the carbonyl-containing cyclic compounds provided by the present invention can reduce the production of reactive oxygen species. HEK 293T cells were divided into 96-well plates at 5000 cells per well, cultured in a 37° C. carbon dioxide incubator with serum-free Duchenne's Modified Eagle's Medium (DMEM) for 6 hours, and then representatives for compounds listed in Table 2 and 3 were added to a final concentration of 0, 0.1, 0.3, 1, 3, 10, 30 micromole/L, with each concentration in triplicate. After 18 hours of incubation, the reactive oxygen species detection kit (ROS-Glo™ H2O2 Assay) and the GloMax microplate fluorescence detector (Promega, USA) were used to detect reactive oxygen species production. At the same time, pioglitazone was used as a control. The amount of fluorescence is positively related to the production of reactive oxygen species. A three-parameter Sigmoid function curve was used to fit the obtained data. The abscissa represents the logarithmic value of the concentration, and the ordinate represents the percentage of reduced reactive oxygen species production relative to those of the control. Then EC50 value was calculated with professional software.

[2] = biological target: T1, PPARγ (Homo sapiens, UniProt P37231); assay: In vitro transcriptional activity of PPARγ gene (PPRE-luciferase reporter, HEK 293 T cells); assay type: cell-based; details: HEK 293 T cells transfected with PPARγ expression and PPRE-luc plasmids, 21 hours; read-out: EC50 of PPARγ gene activation
T1 construct: expressed in transfected cells; host or cells: HEK 293 T cells
T1 sequence (P37231 1-505): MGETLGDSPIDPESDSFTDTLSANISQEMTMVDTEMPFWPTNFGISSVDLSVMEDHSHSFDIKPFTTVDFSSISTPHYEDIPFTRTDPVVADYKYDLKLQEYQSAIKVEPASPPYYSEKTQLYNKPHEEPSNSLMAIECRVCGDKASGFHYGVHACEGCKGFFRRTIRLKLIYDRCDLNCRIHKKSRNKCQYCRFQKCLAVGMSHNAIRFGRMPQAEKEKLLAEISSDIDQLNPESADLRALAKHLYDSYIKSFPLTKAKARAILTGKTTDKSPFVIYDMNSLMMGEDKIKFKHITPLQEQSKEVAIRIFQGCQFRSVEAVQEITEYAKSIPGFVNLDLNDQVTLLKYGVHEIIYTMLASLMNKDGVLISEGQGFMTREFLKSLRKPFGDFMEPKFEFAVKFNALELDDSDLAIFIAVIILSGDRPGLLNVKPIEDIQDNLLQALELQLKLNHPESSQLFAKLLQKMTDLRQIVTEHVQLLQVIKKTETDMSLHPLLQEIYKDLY
Text: In this experiment, the PPARγ gene was used as target gene to detect the in vitro transcription activity of the compounds. The compounds of interest were detected was first dissolved with dimethyl sulfoxide (DMSO). […] First two plasmids were constructed: PPARγ protein expression plasmid and luciferase reporter plasmid. They are both from the lentiviral plasmid pLV-CMVIE-ZsGreen-Puro, whose DNA sequence contains the cytomegalovirus immediate early (CMVie) promoter, ZsGreen and Puro dual reporter. The PPARγ expression plasmid pLV-CMVIE-PPAR[…]-ZsGreen-Puro was constructed by cloning full-length coding sequences of the pertinent receptors into pHBLV-CMVIE-ZsGreen-Puro vector. To construct the luciferase (luc) reporter plasmid pLV-PPRE-luc-ZsGreen-Puro, the CMVie promoter in plasmid pHBLV-CMVIE-ZsGreenPuro was first replaced by a peroxisome proliferator responsive element (PPRE) containing fragments comprised the nucleotide sequence 50-[…], repeated four times in tandem, to generate a new plasmid, at a multiple cloning site of which the luc gene was then inserted. […] The compounds used for screening are representatives for compounds listed in Table 2, and Tables 3 of the present invention. […] Cells were distributed in 10-cm tissue culture plates at a density of 5.5 million cells per plate, and then transfected with the luciferase reporter plasmid (6 nanogram/plate) and the PPARγ expression plasmid (18 nanogram/plate). Cells were cultured for 6 hours. […] Then the cells were distributed in 96-well plates at a density of 20,000 cells per well. After incubation for 6 h, compounds or control with different concentration were placed into each well, resulting in the finical concentration of […] with each concentration in triplicate. Twenty-one hours later, promoter activation was detected by the addition of SteadyLite (PerkinElmer, Waltham, MA) and GloMax 96 Microplate Luminometer (Promega, Madison, WI). The amount of Luminometer emitted from each well is positively correlated with the expression of PPARγ gene. A three-parameter Sigmoid function curve was used to fit the obtained data. The abscissa represents the logarithmic value of the concentration, and the ordinate represents the percentage of PPARγ gene activation relative to those of the control. […] In Statistical analysis, the coefficient of variation is used to measure the robustness and repeatability of the experiment. […] The difference is significant with P<0.05. EC50 is a parameter of its activity.

[3] = system: klotho gene promoter; assay: In vitro transcriptional activity of klotho gene (KL-Luc-3 luciferase cell line); assay type: cell-based; details: 16 h, KL-Luc-3 cells, 16 hours incubation
Text: The activities of these carbonyl-containing cyclic compounds are indicated by the increased expression of klotho gene. […] The present invention retains the DNA fragment of the klotho gene promoter, but replaces the DNA sequence of the coding region of the klotho gene with those of luciferase, so that the degree of activation of the klotho gene promoter and the expression of the klotho gene will be sensitively determined by detecting the luciferase luminescence signal.
Klotho is an important downstream gene of PPARγ pathway. The following experiments tested the properties of the compounds in Table 2 and 3 to activate the klotho gene in vitro. First, a stable cell line, KL-Luc, was constructed. The klotho gene carried by the cell line retained the DNA sequence of klotho gene promoter, but the coding sequence of the klotho gene was replaced with luciferase. KL-Luc fragment includes a promoter sequence of the klotho gene (a DNA region of 18,000 base pairs in length upstream of the transcription start site of the gene) and a luciferase-encoding sequence. To construct the KL-Luc sequence containing lentiviral vector, the KL-Luc fragment was cloned into the pDONR vector using BP recombinase, so that the target fragment had attL recombination sites on both sides. Then the KL-Luc fragment was transferred from the pDONR vector to a lentiviral vector (without exogenous promoter) pLenti6/BLOCK-IT-DEST. The constructed lentiviral vector of the target fragment was then transfected into HEK293T cells, and then the KL-Luc gene lentiviral expression vector and the […] were co-transfected into HEK293T cells to perform lentiviral packaging. The virus was harvested, and virus titer was calculated. And the lentivirus was used to infect target cells. The stable strains were screened by adding drugs. Finally, monoclonal cell lines were selected from polyclonal cells by cell cloning. The effective luciferase expression of each monoclonal cell line was determined by quantitative polymerase chain reaction (qPCR). The inventors chose a third monoclonal cell line (KL-Luc-3) to continue the compound screening. The compounds of interest were the compounds in Table 2 and 3. At the same time, rosiglitazone and pioglitazone were used as a control. KL-Luc-3 cells were divided into 96-well plates at 5000 cells in 80 microL per well, cultured in a 37° C. carbon dioxide incubator with serum-free Duchenne's Modified Eagle's Medium (DMEM) for 6 hours, and then the compounds were added to a final concentration of 0, 0.1, 0.3, 1, 3, 10, 30 micromole/L, with each concentration in triplicate. After 16 hours of incubation, the SteadyLite (PerkinElmer, Waltham, MA) and the GloMax Microplate Luminometer (Promega, USA) were used for quantitation of luciferase activity. The amount of luminescence emitted from each well is positively related to the transcriptional activity of the klotho promoter. A three-parameter Sigmoid function curve was used to fit the obtained data. The abscissa represents the logarithmic value of the concentration, and the ordinate represents the percentage of the activity relative to those of the control. […] In Statistical analysis, the coefficient of variation is used to measure the robustness and repeatability of the experiment. […] The difference is significant with P<0.05. EC50 is a parameter of its activity. The lower the EC50 value, the higher the activity of corresponding compound.

[4] = system: APP/PS1 transgenic mice; assay: Alzheimer's disease model, eight-arm radial water maze and brain gene expression; assay type: in vivo, mouse; details: 30 days in food, 10 mg/kg body weight/day (donepezil 3 mg/kg body weight/day), 5 on the first day
Text: A common indicator used in academia in memory and dementia experiments is the number of errors in the water maze (reference memory). More errors mean poorer memory. On the last 3 days of dosing, eight-arm radial water maze was used by experimenters who were blind to drug treatment. As a classic experimental instrument, to detect slight deficits in learning and memory, the eight-arm water maze is more sensitive than not only Morris maze, but also Six-arm radial water maze. For details, see reference 8: Alamed J et al. Two-day radial-arm water maze learning and memory task; robust resolution of amyloid-related memory deficits in transgenic mice [J]. […] This experiment uses an eight-arm water maze built in accordance with the above literature. The eight-arm water maze is placed in a basin with an interior diameter of 102 cm. Each arm measures 30 cm long, 14.5 cm wide, and 40 cm high. Escape platform is located at the end of one of the arms. In the reference memory version of the task described here, the goal arm is held constant for all trials, with a different start arm on successive trials. On day one, mice received 12 trials, with trials alternating between visible and hidden platform. On day 2 and 3, mice received 12 additional trials but the platform was kept hidden throughout the trials. Entry into an incorrect arm was scored as a spatial reference error. Errors were averaged into three trial blocks, with four blocks per day, e.g., the first block (the 1st to 3rd trial), the second block (the 4th to 6th trial), and so on. […]. The line charts were made with the number of blocks as the abscissa and the average of the number of errors as the ordinate. At the end of the experiments, the cerebral cortex and hippocampus of the mice were removed, RNA was extracted, and the expression of many genes was analyzed by semi-quantitative RT-PCR. […] The difference is significant with P<0.05.

[5] = system: db−/db− mice; assay: Diabetic peripheral neuropathy model, Von Frey threshold, sciatic nerve ROS and MDA; assay type: in vivo, mouse; details: in food 10 mg/kg body weight/day (pregabalin 30 mg/kg body weight/day)
Method: Male 5-6 week-old male db^−/db^− mice were used in the experiment, and their normoglycemic heterozygous littermates were used as controls. db^−/db^− is a commonly used type 2 diabetes animal model. The compounds was dissolved in DMSO and mixed into food pellets. The animals were given ad libitum access to the pellets, beginning from 8 to 9 weeks of age for 10 weeks. […] The method for detecting mice hindlimb hypersensitivity is performed using Von Frey filaments. […] The difference is significant with P<0.05. The increase of mitochondrial reactive oxygen species (ROS) in the sciatic nerve of mice, which in turn leads to the increase of intracellular malondialdehyde (MDA), is the etiology of this type of neuropathic pain. The efficacy of compound to treat the root cause of the disease was evaluated by measurement of the levels of MDA and mitochondrial ROS from the sciatic nerves.

[6] = system: MPTP-HCl Parkinson's disease model mice; assay: Parkinson's disease model (MPTP-HCl), beam traversal test; details: MPTP-HCl/probenecid mice, 5 mg/kg body weight intraperitoneal daily, 35 days
Method: Three month-old male wild type mice were used in the experiment. The treatment lasted for a total of 35 days. […] For all abovementioned groups, Motor skills were assessed on the 36th to 40th days after compound administration. Beam traversal test is a method commonly used in academia to detect movement coordination in animals with Parkinson's disease. […] The mice were first trained for 2 consecutive days, and taught to trained to traverse the length of the beam. On the day of the test, a mesh grid (1 cm squares) of corresponding width was placed over the beam surface leaving a ˜1 cm space between the grid and the beam surface. Animals were then videotaped while traversing the grid-surfaced beam for a total of five trials. An error was counted when, during a forward movement, a forelimb or hindlimb slipped through the grid. The number of errors made per step (referred to as “error per step scores”) was counted. An analysis of variance (ANOVA) and Dunnett post hoc comparison test are used to compare the significance of the differences between different groups of data. The difference is significant with P<0.05.

[7] = Blood-brain barrier permeability: brain concentration after a single injection; assay type: in vivo, rat; details: for AUC(0-t): male, rat, in vivo, ip, 10 mg/kg
Method: The blood-brain barrier permeability of carbonyl-containing cyclic compounds is determined in in vivo studies. Healthy male rats used in the study were divided into compound group and control group. […] The brains were dissected, heated immediately at boiling water for 2 min, homogenized with methanol, and centrifuged. The upper layer was collected and dried under vacuum to remove solvents, and then resuspended in methanol. The above samples are filtered through a 0.45 micron nylon membrane, and then 20 microL of sample were load into a high-performance liquid chromatographic (HPLC) system (Model LC-16P, Shimadzu, Japan) to perform quantitative analysis.

[8] = system: dIoN-CCI rat model of trigeminal neuropathic pain; assay: Trigeminal neuralgia model (dIoN-CCI), Von Frey mechanical threshold; details: dIoN-CCI rats
Text: A common rat model of trigeminal neuralgia is a chronic compression injury model (CCI) caused by ligation of the infraorbital nerve (IoN). In the present study, an improved rat model of trigeminal neuropathic pain was used, in which CCI is induced by ligation of distal segment of IoN (dIoN). Wild type male Sprague-Dawley rats with body weight 250 to 260 grams underwent dIoN-CCI surgery experiments. The mechanical threshold of pain in rats without surgery experiments will exceed 6 grams. If the dIoN-CCI surgery is successful, it will reduce the pain threshold to less than 2 grams.
The mice were divided into the following 11 groups with 4 to 5 mice in each group. The formulation used for transdermal treatment is cream. […] The compound administration of each group starts on the third day after successful dIoN-CCI surgery. […] The method for detecting rat facial hypersensitivity is performed using Von Frey filaments. An analysis of variance (ANOVA) and Dunnett post hoc comparison test are used to compare the significance of the differences between different groups of data. The difference is significant with P<0.05.

[9] = compared with healthy control group

pEC50 [2] | pEC50 [3] | AUC(0-t) ([7]; AUC0-6 h) [ng·h/mL] | AUC(0-t) ([7]; AUC0-24 h) [ng·h/mL] | time to maximum brain concentration (Tmax) ([7]; rat brain, 10 mg/kg intraperitoneal, single injection) [h] | Compound | pEC50 [1] | number of errors in water maze on the third day [4] | level of MDA in the sciatic nerve after 10 week treatment [5, 9] | level of mitochondrial ROS in the sciatic nerve after 10 week treatment [5, 9] | mechanical pain threshold after 10 week treatment ([5]; compared with normal control group) | number of errors per step in beam traversal test compared with disease control group [6] | inhibition of active oxygen production (up to), compared to the DMSO control [1] | minimum effective anti-allodynic dose ([8]; oral) [mg/kg] | mechanical threshold 2 hours after oral administration ([8]; oral 300 mg/kg body weight, Von Frey) [g]
> 5.19 | > 5.01 |  |  |  | CCc1cccc(CC/C=C/c2ccc3c(c2)C(=O)CC3)c1 [ELB001203, 6-((1E)-4-(3-ethylphenyl)but-1-en-1-yl)-2,3-dihydro-1H-inden-1-one] | > 5.52 |  |  |  |  |  |  |  | 
 |  |  |  |  | CCc1ccc(CCCCc2ccc3c(c2)C(=O)CC3)cc1 [ELB00825, 6-(4-(4-ethylphenyl)butyl)-2,3-dihydro-1H-inden-1-one] | > 5.00 | comparable to that of ELB00824 | reduced | reduced | significantly improved | significantly lower |  |  | 
 |  | 1510 | 3520 | 1 | CCc1ccc(CCOc2ccc(CC3SC(=O)NC3=O)cc2)nc1 (stereo not drawn) [pioglitazone, reference compound] | 6.15 |  |  |  |  |  | up to 42% | 300 | 4.9 ± 0.9
 | 5.01 | 774 | 1930 |  | CN(CCOc1ccc(CC2SC(=O)NC2=O)cc1)c1ccccn1 (stereo not drawn) [rosiglitazone, reference compound] | 5.60 |  |  |  |  |  | up to 58% |  | 
